{"source": "patent US20040171086A1", "about": "“Selective modulation of TLR-mediated biological activity” (3M Innovative Properties Company, priority 2003, published 2004)", "assay_type_in_all_cases": "cell-based, human", "key": {"Myeloid DCs": {"test_system": "Myeloid DCs", "experiment": "IL-12 production by myeloid DCs (IGEN analysis)", "description": "(§1) The blood myeloid dendritic cells (mDC) were isolated from the BDCA-4 negative cell fraction using the Miltenyi Microbead technology system (Miltenyi BioTec, Auburn, Calif.). Cells were resuspended in 4° C. separation buffer (PBS- pH 7.2, 0.5% BSA-2.5 gm, 2 mM 0.5M EDTA) at 20 μl per 10^7 total cells. […] The cells were resuspended in 500 μL of separation buffer per 10^8 total cells. […] BDCA-1^+mDCs were enriched using the Miltenyi Automacs POSSELD software. The cells retained in the column were eluted into a sterile 50 mL polystyrene conical tube.\n(§2) Compounds, reconstituted in dimethyl sulfoxide (DMSO, sterile cell culture grade, Sigma Chemical Co., St. Louis, Mo.) were added at 2× their final concentration to a 96-well flat-bottom sterile tissue culture polystyrene plate (Benton Dickinson Labware, Franklin Lakes, N.J.). Cells were then added at 2× the final concentration (final cell concentration is 1×10^6 cells/mL). Plates were incubated for 16-24 hours at 37° C., 5% CO2. After incubation, plates were centrifuged at 1000 RPM for 10 minutes at 25° C. Supernatants were transferred to a 0.75 mL sterile polypropylene Matrix box (Matrix, Hudson, N.Y.) and stored at −20° C. for future cytokine analysis.\nIL-12 analysis was performed using IGEN analysis. More than two hours prior to performing the analysis, a 1:20 dilution of M-280 Streptavidin Dynabeads was prepared in IGEN buffer. Also, a 1 μg/mL solution of biotinylated IL-12 antibody (Cat. No. AHC7129, Biosource International, Camarillo, Calif.) in IGEN buffer was prepared. The 1:20 Dynabeads solution and the biotinylated antibody solution were mixed together and incubated 30 minutes at room temperature, then stored at 4° C. until the analysis was performed.\nTo perform the analysis, 50 μL of the Dynabeads/biotinylated antibody solution was added to each well of a 96-well plate. […] 25 μL of sample was added to each well, each sample containing either a standard dilution or an experimental sample.\nThe 96-well plate was tapped to mix the contents of each well, covered with plate sealer, and incubated at room temperature for 2.5 hours. Following the incubation, 100 μL of IGEN PBS Buffer was added to each well for a total assay volume of 200 μL and read on the IGEN M-8 Analyzer (IGEN International, Inc., Gaithersburg, Md.) using the hIL-12 protocol."}, "[1]": {"test_system": "myeloid dendritic cells (mDCs)", "experiment": "Activation of blood myeloid dendritic cells (CD80/HLA-DR staining, flow cytometry)", "conditions": "two donors; 1 μM IRM or 3 μM CpG2216, 16-24 hours; HLA-DR positive with increased CD80; FIG. 1", "description": "as §1, §2"}, "[2]": {"test_system": "plasmacytoid dendritic cells (pDCs)", "experiment": "Activation of plasmacytoid dendritic cells (CD80/HLA-DR staining, flow cytometry)", "conditions": "two donors; 1 μM IRM or 3 μM CpG2216, 16-24 hours; HLA-DR positive with increased CD80; FIG. 2", "description": "The cells were resuspended in 500 μL of separation buffer per 10^8 total cells. […] The cells retained in the column were eluted into a sterile 50 mL polystyrene conical tube.\nas §2"}}, "data": [{"smiles": "CCCc1nc2c(N)nc3ccccc3c2s1", "note": "[IRM9, 2-propylthiazolo[4,5-c]quinolin-4-amine]", "values": [{"measurement": "IL-12", "setting": "Myeloid DCs; donor3, 3.0 μM IRM", "result": 693, "unit": "pg/mL"}]}, {"smiles": "CCc1nc2c(N)nc3ccccc3c2n1CCCCNS(C)(=O)=O", "note": "[IRM36, N-[4-(4-amino-2-ethyl-1H-imidazo[4,5-c]quinolin-1-yl)butyl]methanesulfonamide]", "values": [{"measurement": "activation of myeloid dendritic cells (mDCs) in vitro", "setting": "[1]", "result": "not activated"}, {"measurement": "activation of plasmacytoid dendritic cells (pDCs) in vitro", "setting": "[2]", "result": "activated"}, {"measurement": "IL-12", "setting": "Myeloid DCs; donor3, 3.0 μM IRM", "result": 57, "unit": "pg/mL"}, {"measurement": "IL-12", "setting": "Myeloid DCs; donor4, 3.0 μM IRM", "result": 77, "unit": "pg/mL"}]}, {"smiles": "CCOCc1nc2c(N)nc3ccccc3c2n1CCCNC(=S)Nc1cccc(C#N)c1", "note": "[IRM37, N-{3-[4-amino-2-(ethoxymethyl)-1H-imidazo[4,5-c]quinolin-1-yl]propyl}-N′-(3-cyanophenyl)thiourea]", "values": [{"measurement": "IL-12", "setting": "Myeloid DCs; donor3, 3.0 μM IRM", "result": 296, "unit": "pg/mL"}, {"measurement": "IL-12", "setting": "Myeloid DCs; donor4, 3.0 μM IRM", "result": 491, "unit": "pg/mL"}]}, {"smiles": "Cc1nc2c(N)nc3ccccc3c2n1CCCCNC(=O)N1CCCCC1", "note": "[IRM38, N-[4-(4-amino-2-methyl-1H-imidazo[4,5-c]quinolin-1-yl)butyl]piperidine-1-carboxamide]", "values": [{"measurement": "IL-12", "setting": "Myeloid DCs; donor3, 3.0 μM IRM", "result": 17, "unit": "pg/mL"}, {"measurement": "IL-12", "setting": "Myeloid DCs; donor4, 3.0 μM IRM", "result": 20, "unit": "pg/mL"}]}, {"smiles": "CCc1nc2c(N)nc3ccccc3c2n1CC(C)(C)NC(=O)Nc1ccccc1", "note": "[IRM39, N-[2-(4-amino-2-ethyl-1H-imidazo[4,5-c]quinolin-1-yl)-1,1-dimethylethyl]-N′-phenylurea]", "values": [{"measurement": "IL-12", "setting": "Myeloid DCs; donor3, 3.0 μM IRM", "result": 280, "unit": "pg/mL"}, {"measurement": "IL-12", "setting": "Myeloid DCs; donor4, 3.0 μM IRM", "result": 400, "unit": "pg/mL"}]}, {"smiles": "CCOCc1nc2c(N)nc3ccccc3c2n1CC(C)(C)O", "note": "[IRM40, 4-amino-α,α-dimethyl-2-ethoxymethyl-1H-imidazo[4,5-c]quinolin-1-ethanol]", "values": [{"measurement": "IL-12", "setting": "Myeloid DCs; donor3, 3.0 μM IRM", "result": 517, "unit": "pg/mL"}, {"measurement": "IL-12", "setting": "Myeloid DCs; donor4, 3.0 μM IRM", "result": 765, "unit": "pg/mL"}]}, {"smiles": "CC(C)Cn1cnc2c(N)nc3ccccc3c21", "note": "[IRM41, 1-(2-methylpropyl)-1H-imidazo[4,5-c]quinolin-4-amine]", "values": [{"measurement": "IL-12", "setting": "Myeloid DCs; donor3, 3.0 μM IRM", "result": 17, "unit": "pg/mL"}, {"measurement": "IL-12", "setting": "Myeloid DCs; donor4, 3.0 μM IRM", "result": 39, "unit": "pg/mL"}]}]}
